Consider 11 compounds from US6143730A, “Preparation and use of sulfated oligosaccharides” (priority 1995, dated 2000).

Converted amounts (≈) assume the structure as drawn. Read-outs that look alike come from different tables or passages of the source.

The target of one experiment is aFGF (Homo sapiens, UniProt P05230). The experiment can be described thus: Binding of BALB/c 3T3 cells (cell surface heparan sulfate) to immobilised aFGF. Type of experiment: cell-based. The following applies: binding of mouse 3T3 cells to immobilised aFGF. As to the method: (§1) The FGF-heparan sulfate interaction was assessed, as reported earlier (39), by measuring the binding of BALB/c 3T3 fibroblasts to PVC immobilised FGFs, cell binding being detected by Rose Bengal staining of adherent cells. Sulfated oligosaccharides were examined for their ability to inhibit this cell adhesion process, which is totally dependent upon heparan sulfate structures on the surface of BALB/c 3T3 cells (39).
Chain of aFGF (P05230 whole entry, species assumed): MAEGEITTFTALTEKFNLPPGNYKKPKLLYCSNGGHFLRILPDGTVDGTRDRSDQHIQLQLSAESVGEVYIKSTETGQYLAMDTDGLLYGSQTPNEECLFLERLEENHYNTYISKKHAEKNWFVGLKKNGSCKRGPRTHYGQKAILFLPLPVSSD

The target in experiment [1] is T1, human platelet heparanase (Homo sapiens, UniProt Q9Y251).
T1 construct: from tissue; host or cells: human platelets
T1 sequence (Q9Y251 158-543 limits assumed): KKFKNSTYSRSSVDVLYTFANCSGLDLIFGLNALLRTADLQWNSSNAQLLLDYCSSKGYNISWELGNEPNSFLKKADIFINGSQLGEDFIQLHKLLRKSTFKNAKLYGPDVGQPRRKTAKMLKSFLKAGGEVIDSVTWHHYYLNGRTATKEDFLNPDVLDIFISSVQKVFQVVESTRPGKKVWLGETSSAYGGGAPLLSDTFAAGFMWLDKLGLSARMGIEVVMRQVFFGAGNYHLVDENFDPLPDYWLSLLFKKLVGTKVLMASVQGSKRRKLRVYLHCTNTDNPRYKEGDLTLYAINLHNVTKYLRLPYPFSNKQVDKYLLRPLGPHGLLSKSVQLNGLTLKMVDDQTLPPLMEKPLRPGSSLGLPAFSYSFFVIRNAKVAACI
T1 sequence (Q9Y251 36-109 limits assumed): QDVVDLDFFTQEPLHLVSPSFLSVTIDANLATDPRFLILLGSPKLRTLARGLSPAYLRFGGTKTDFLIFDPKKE
The experiment can be described thus: Heparanase inhibition assay. Type of experiment: biochemical. An excerpt:
The heparanase assay is based on the observation that the serum protein, histidine-rich glycoprotein (HRG), binds to heparan sulfate chains and masks the heparanase cleavage site. Based on the finding that heparanase-cleaved heparan sulfate fails to bind to HRG a heparanase assay has been developed which involves digesting ^3 H-labelled heparan sulfate chains with heparanase, binding the digested heparan sulfate to HRG coupled beads and measuring unbound ^3 H label. With increasing digestion of the substrate an increasing amount of ^3 H label fails to bind to the HRG beads.
Initially, bovine intestinal heparan sulfate (Mr av 32 kDa) was partially de-N-acetylated by heating in hydrazine hydrate (36) and re-acetylated with ^3 H-acetic anhydride.
Activity was determined by the rate of production of smaller (approx 5 kDa) heparan sulfate fragments that were not bound following passage of the incubation mixture (100 μl) through HRG-Sepharose mini-columns (200 μl packed beads) which retained the larger uncleaved and partially cleaved substrate.
In heparanase-inhibition assays, different concentrations of inhibitor were added to the enzyme prior to addition of radiolabelled substrate, the inhibitor being retained in the reaction mixture throughout the incubation period.

The subject of experiment [2] is thrombin time and activated partial thromboplastin time. Description: Anticoagulant activity (thrombin time and activated partial thromboplastin time). Particulars: percentage of heparin activity (100%). In kind it is biochemical. As to the method: The anticoagulant activity of each sulfated oligosaccharide was assessed as previously described (35), using both thrombin time and activated partial thromboplastin time procedures. The activity of each preparation was compared with a heparin control and anticoagulant activity expressed as a percentage of heparin activity.

Another experiment deals with bFGF (Homo sapiens, UniProt P09038). Description: Binding of BALB/c 3T3 cells (cell surface heparan sulfate) to immobilised bFGF. In kind it is cell-based. The following applies: binding of mouse 3T3 cells to immobilised bFGF. As to the method:
as §1

For another experiment, the system named is air pouch inflammation. The experiment can be described thus: Air pouch inflammation model (thioglycollate). Type of experiment: in vivo, mouse. Particulars: 25 mg/kg subcut., ± SEM. As to the method: The assay is based on a previously reported procedure (40). Subcutaneous air pouches were formed on the backs of mice by injecting 5 ml of sterile air below the skin of a shaved area between the scapulae of an anaesthetised mouse on day 1. On day 3 the pouch was reinflated by the injection of 2.5 ml of air. Inflammation was induced on day 6 by injecting directly into the pouch 1.0 ml of 56 mg/ml thioglycollate or 1.0 ml of saline as a control. Approximately 17-20 hrs after thioglycollate injection the animals were killed by cervical dislocation and the cellular contents of the pouch retrieved by the injection of 2.5 ml of ice cold PBS/5% FCS. Sulfated oligosaccharides were tested for their ability to inhibit the inflammatory reaction by being injected subcut. (50 μl in PBS) in a separate site immediately following administration of the thioglycollate. Prednisolone was used as a control anti-inflammatory drug, being injected subcut. in oil at 25 mg/kg. The total cellular contents of each pouch was determined using a Coulter Counter and different leukocyte subpopulations were assessed by immunofluorescent flow cytometry.

Experiment [3] has as its system human angiogenesis in vitro. The following applies: reference 42; cited from earlier work.
Experiment [4] relates to rat mammary adenocarcinoma 13762 MAT. The experiment can be described thus: Metastasis assay (lung metastases of 13762 MAT). The following applies: for Metastasis (% Control): 13762 MAT cells i.v., 2 mg/rat at time of tumour cell injection, lungs, ± SEM (n = 4). In kind it is in vivo. As to the method: The antimetastatic activity of the different sulfated oligosaccharides was assessed using the highly metastatic rat mammary adenocarcinoma 13762 MAT (35). The tumour cells were maintained in vitro as previously described (35). Female Fisher 344 rats, (10-13 weeks of age) were injected i.v. with 2×10^5 13762 MAT cells in 0.6 ml RPMI 1640 medium containing 10% FCS. At the time of tumour cell injection animals were also injected with 2 mg of sulfated oligosaccharide, similar results being obtained if the oligosaccharide was injected i.v., i.p. or subcut. Lungs were removed from the rats 13 days following tumour cell injection, placed in Bouin's solution for at least 24 hours and lung metastases then assessed under a dissecting microscope. The number of lung metastases in sulfated oligosaccharide treated rats was compared with that observed in control animals, with a minimum of four animals being included in each group.

For experiment [5], the target named is T1, human platelet heparanase. Particulars: reference 42; cited from earlier work.
The subject of experiment [6] is human angiogenesis in vitro. The experiment can be described thus: Human angiogenesis assay (placental blood vessel fragments in fibrin gel). Type of experiment: cell-based. Particulars: for inhibition of human angiogenesis: in words. As to the method:
The assay method used is described in International Patent Application No. PCT/AU95/00105, the disclosure of which is incorporated herein by reference. Blood vessels, approx 1-2 mm in diameter and 2-5 cm in length, were excised from the surface of human placentas within 6 hours of birth. The vessels were placed in Hank's BSS containing […] of fungizone and cut into 1-2 mm length fragments using fine dissecting forceps and iridectomy scissors. Vessel fragments were freed of residual clots and soaked in Hank's BSS before use. Dissecting and sectioning of vessels was performed with the aid of a magnifier lamp (Maggylamp, Newbound, Balmain, NSW, Australia). Similar angiogenic responses were obtained from blood vessels of venular and arterial origin but, for each assay, vessel fragments from only one vessel were used.
Angiogenesis assays were performed in 24 or 48 well culture plates (Costar, Cambridge, Mass.). In the 24 well format, 30 μl of bovine thrombin (50 NIH units/ml in 0.15 M NaCl; Sigma Chemical Co., St Louis, Mo.) was added to each well followed by 1.0 ml/well of 3 mg/ml bovine fibrinogen (Sigma) in Medium 199. The thrombin and fibrinogen were mixed rapidly and one vessel fragment quickly placed in the centre of the well before clot formation. Usually fibrin gel formation occurred in 30 seconds and the vessel fragment was left suspended in the gel. Following gel formation 1.0 ml/well of Medium 199 supplemented with 20% foetal calf serum (FCS), 0.2 mg ε-amino caproic acid, L-glutamine and antibiotics (gentamycin and fungazone) was added. In the 48 well format all reagent volumes were halved. Vessels were cultured at 37° C. in a humidified environment for 14-21 days with the medium being changed twice weekly. Angiogenesis was quantified by computer based image analysis, using NIH Image software, of digital images of the cultures obtained with a Dycam digital camera mounted on an inverted microscope (Olympus, Tokyo, Japan).

Chain of bFGF (P09038 134-288, species assumed): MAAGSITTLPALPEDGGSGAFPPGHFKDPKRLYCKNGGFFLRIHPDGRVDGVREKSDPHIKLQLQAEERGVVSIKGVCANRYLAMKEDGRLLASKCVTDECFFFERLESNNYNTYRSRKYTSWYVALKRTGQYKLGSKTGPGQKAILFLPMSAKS

As for `O=S(=O)(O)OC[C@H]1O[C@H](O[C@H]2[C@H](OS(=O)(=O)O)[C@@H](OS(=O)(=O)O)[C@@H](O[C@H]3[C@H](OS(=O)(=O)O)[C@@H](OS(=O)(=O)O)[C@@H](O[C@H]4[C@H](OS(=O)(=O)O)[C@@H](OS(=O)(=O)O)C(OS(=O)(=O)O)O[C@@H]4COS(=O)(=O)O)O[C@@H]3COS(=O)(=O)O)O[C@@H]2COS(=O)(=O)O)[C@H](OS(=O)(=O)O)[C@@H](OS(=O)(=O)O)[C@@H]1O[C@H]1O[C@H](COS(=O)(=O)O)[C@@H](O[C@H]2O[C@H](COS(=O)(=O)O)[C@@H](OS(=O)(=O)O)[C@H](OS(=O)(=O)O)[C@H]2OS(=O)(=O)O)[C@H](OS(=O)(=O)O)[C@H]1OS(=O)(=O)O` (some centres unmarked) [Maltohexaose 20/20], the IC50 at aFGF (read-out: IC50 aFGF, Table 2) was 7600 nM; in experiment [1] (read-out: IC50 Heparanase, Table 2), 1930 nM; at bFGF (read-out: IC50 bFGF, Table 2) it was 2080 nM. Also, the “Anticoagulant Activity” value in experiment [2] (Table 2) stood at 3.3%.
With `C[C@]12C=CC(=O)C=C1CC[C@@H]1[C@@H]2[C@@H](O)C[C@@]2(C)[C@H]1CC[C@]2(O)C(=O)CO` [Prednisolone], the “Leukocyte Infiltrate in Air Pouch (% Control)” value in the experiment on air pouch inflammation (Expt 1) worked out at 56 ± 14%; in the experiment on air pouch inflammation (Expt 2), 44 ± 3%.
Take `Cc1ccc(C(=O)Nc2ccc(S(=O)(=O)O)c3cc(S(=O)(=O)O)cc(S(=O)(=O)O)c23)cc1NC(=O)c1cccc(NC(=O)Nc2cccc(C(=O)Nc3cc(C(=O)Nc4ccc(S(=O)(=O)O)c5cc(S(=O)(=O)O)cc(S(=O)(=O)O)c45)ccc3C)c2)c1` [Suramin]: the anti-angiogenic activity entry in [3] was “moderate anti-angiogenic and heparanase inhibitory activity”. Besides, the “Metastasis (% Control)” value in experiment [4] is on record as 74 ± 8%. For the same compound, the heparanase inhibitory activity entry in experiment [5] is “moderate anti-angiogenic and heparanase inhibitory activity”. Moreover, the IC50 in experiment [6] (Homo sapiens, Table 1, added at commencement of culture, read-out: 50% Inhibitory Concn, Angiogenesis) came out at 50 µg/mL (≈ 38.5 µM). Besides, the “Anticoagulant Activity” value in experiment [2] (Table 1) was 0.1%.
For the compound Galactotetraose, the “IC50 Heparanase” value in experiment [1] (Table 3) was 3.5 µg/mL. Moreover, the “Anticoagulant Activity” value in experiment [2] (Table 3) stood at 1.0%. In addition, the “IC50 bFGF” value at bFGF (Table 3) turned out to be 9 µg/mL.
Consider Heparin, for which the “Metastasis (% Control)” value in [4] was determined as 20 ± 3%. Also, in experiment [1] (Table 1), the “50% Inhibitory Concn, Heparanase” value amounted to 1 µg/mL. The “50% Inhibitory Concn, Angiogenesis” value in experiment [6] (Table 1, added at commencement of culture) is > 2000 µg/mL. The “inhibition of human angiogenesis” value in [6] is reported as “little anti-angiogenic activity”. Also, the “Anticoagulant Activity” value in experiment [2] (Table 1) is given as 100%.
For the compound Maltoheptaose, the “IC50 aFGF” value at aFGF (Table 2) is 27 µg/mL. In addition, the “IC50 Heparanase” value in experiment [1] (Table 2) worked out at 3 µg/mL. Besides, in experiment [2] (Table 2), the “Anticoagulant Activity” value amounted to 3.9%. Further, at bFGF (Table 2), the “IC50 bFGF” value stood at 10 µg/mL.
For the compound Maltopentaose, in experiment [4] (in words), the antimetastatic activity entry was “potent antimetastatic and anti-angiogenic activity”. Besides, the “IC50 aFGF” value on aFGF (Table 2) worked out at 27 µg/mL. Further, in experiment [1] (Table 2), the “IC50 Heparanase” value is 4 µg/mL. The “inhibition of human angiogenesis” value in experiment [6] was “potent antimetastatic and anti-angiogenic activity”. Moreover, in experiment [2] (Table 2), the “Anticoagulant Activity” value was found to be 3.2%. On bFGF (Table 2), the “IC50 bFGF” value stood at 37.5 µg/mL.
Consider Maltotriose, for which, at aFGF (Table 2), the “IC50 aFGF” value worked out at 58.7 µg/mL. In experiment [1] (Table 2), the “IC50 Heparanase” value worked out at 100 µg/mL. In addition, the heparanase inhibitory activity result in experiment [1] (in words) is given as “weakly inhibitory”. Moreover, in experiment [2] (Table 2), the “Anticoagulant Activity” value is recorded as 0.8%. Also, the “IC50 bFGF” value at bFGF (Table 2) stood at 145 µg/mL.
Regarding Mannohexaose, the “IC50 aFGF” value on aFGF (Table 3) is 5 µg/mL. Further, in [1] (Table 3), the “IC50 Heparanase” value is 3 µg/mL. Further, the “Anticoagulant Activity” value in experiment [2] (Table 3) stood at 0.8%. The “IC50 bFGF” value at bFGF (Table 3) turned out to be 11 µg/mL.
Turning to Mannotetraose, the “IC50 aFGF” value at aFGF (Table 3) was determined as 5 µg/mL. The “IC50 Heparanase” value in experiment [1] (Table 3) amounted to 6 µg/mL. Moreover, the “Anticoagulant Activity” value in [2] (Table 3) is reported as 0.4%. For the same compound, on bFGF (Table 3), the “IC50 bFGF” value stood at 20 µg/mL.
For the compound Mannotriose, the “IC50 Heparanase” value in experiment [1] (Table 3) turned out to be 25 µg/mL. Further, the “Anticoagulant Activity” value in experiment [2] (Table 3) worked out at 0.3%.
